# Laboratory results reported in patent US20040248887A1, “Inhibitors of cathepsin S” (IRM LLC, priority 2003, published 2004).
# Target: Cathepsin S (Homo sapiens, UniProt P25774)
# Assay: Cathepsin S inhibition, fluorogenic peptide substrate kinetic assay
# Assay type: biochemical
# Details: Table II; Cathepsin S inhibition constant, pH5.5; read-out: Ki Cat. S
# In short: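 Ki values derive from apparent constants fitted to progress curves, corrected for competition with substrate via [S] and Km. Kinetics were monitored at 380 nm excitation/450 nm emission, after substrate addition (Ac-HPVK-ACC, 50 μM final) to start the reaction.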
# Sequence of Cathepsin S (P25774 115-331, species assumed): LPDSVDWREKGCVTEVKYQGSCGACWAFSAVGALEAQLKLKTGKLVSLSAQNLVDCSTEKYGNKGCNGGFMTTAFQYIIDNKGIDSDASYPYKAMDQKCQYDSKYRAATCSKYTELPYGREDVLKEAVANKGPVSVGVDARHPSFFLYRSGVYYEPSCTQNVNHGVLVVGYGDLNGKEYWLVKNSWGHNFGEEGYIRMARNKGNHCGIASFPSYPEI
row,Compound,Ki [nM]
1,"CS(=O)(=O)c1cccc(C(=O)N[C@@H](CC2CCCCC2)C(=O)NCCN2CCc3cc(F)ccc32)c1 [Compound 80, N-(S)-{2-cyclohexyl-1-[2-(5-fluoro-2,3-dihydro-indol-1-yl)-ethylcarbarnoyl]-ethyl}-3-methanesulfonyl-benzamide]",< 100
2,"C[C@@H](CNc1ccc(C(=N)N)cc1)NC(=O)C(NC(=O)c1ccc(OCc2ccccc2)cc1)c1ccc(Cl)cc1Cl (mixture of isomers) [Compound 175, 4-Benzyloxy-N-(R,S)-{[2-(4-amidinophenylamino)-1-(S)-methyl-ethylcarbamoyl]-(2,4-dichloro-phenyl)-methyl}-benzamide]",< 1000
3,"Cc1cccc(S(=O)(=O)N[C@@H](CC2CCCCC2)C(=O)NCCN2CCc3cc(F)ccc32)c1 [Compound 243, (S)-3-Cyclohexyl-N-[2-(5-fluoro-2,3-dihydro-indol-1-yl)-ethyl]-2-(toluene-3-sulfonylamino)-propionamide]",< 100
4,"O=C(NCCN1CCc2cc(F)ccc21)[C@H](CC1CCCCC1)NS(=O)(=O)c1ccc(OC(F)F)cc1 [Compound 240, (S)-3-Cyclohexyl-2-(4-difluoromethoxy-benzenesulfonylamino)-N-[2-(5-fluoro-2,3-dihydro-indol-1-yl)-ethyl]-propionamide]",< 1000
5,"CC(C(=O)N[C@@H](CC1CCCCC1)C(=O)NCCN1CCc2cc(F)ccc21)c1ccc(F)cc1 (stereo partly drawn) [Compound 62, N-{2-cyclohexyl-1-(S)-[2-(5-fluoro-2,3-dihydro-indol-1-yl)-ethylcarbamoyl]-ethyl}-2-(4-fluoro-phenyl)-propionamide]",< 1000
6,"C[C@@H](CNc1ccc(OC(F)F)cc1)NC(=O)[C@H](CC1CCCCC1)NC(=O)c1ccc(-c2cccc(F)c2)o1 [Compound 84, 5-(3-Fluoro-phenyl)-furan-2-carboxylic acid {2-cyclohexyl-1-(S)-[2-(4-difluoromethoxy-phenylamino)-1-(S)-methyl-ethylcarbamoyl]-ethyl}-amide]",< 100
7,"O=C(N[C@@H](CC1CCCCC1)C(=O)NCCN1CCc2cc(F)ccc21)c1ccoc1 [Compound 13, Furan-3-carboxylic acid (S)-{2-cyclohexyl-1-[2-(5-fluoro-2,3-dihydro-indol-1-yl)-ethylcarbamoyl]-ethyl}-amide]",< 100
8,"C[C@@H](CNc1ccc(OC(F)(F)F)cc1)NC(=O)[C@H](CC(C)(C)C)NC(=O)C1CCOCC1 [Compound 269, Tetrahydropyran-4-carboxylic acid {3,3-dimethyl-1-(S)-[1-(S)-methyl-2-(4-trifluoromethoxy-phenylamino)-ethylcarbamoyl]-butyl}-amide]",< 1000
9,"COc1cccc(C(=O)N[C@@H](CC(C)(C)C)C(=O)N[C@@H](COCc2ccccc2)CN2CCc3cc(F)ccc32)c1 [Compound 155, N-{1-(S)-[1-(R)-Benzyloxymethyl-2-(5-fluoro-2,3-dihydro-indol-1-yl)-ethylcarbamoyl]-3,3-dimethyl-butyl}-3-methoxy-benzamide]",< 100
10,"C[C@@H](CNc1ccc(OC(F)(F)F)cc1)NC(=O)[C@H](CC1CCCCC1)NC(=O)O[C@@H]1CCN(C(=O)OC(C)(C)C)C1 [Compound 185, 3-(R)-{2-Cyclohexyl-1-(S)-[1-(S)-methyl-2-(4-trifluoromethoxy-phenylamino)-ethylcarbamoyl]-ethylcarbamoyloxy}-pyrrolidine-1-carboxylic acid tert-butyl ester]",< 1000
11,"C[C@@H](C(=O)N[C@@H](CCC1CCCCC1)C(=O)NCCN1CCc2cc(F)ccc21)c1ccccc1 [Compound 102, 4-Cyclohexyl-N-[2-(5-fluoro-2,3-dihydro-indol-1-yl)-ethyl]-2-(S)-(2-(R)-phenyl-propionylamino)-butyramide]",< 100
12,"C[C@@H](CNc1ccc(OC(F)(F)F)cc1)NC(=O)[C@H](CC(C)(C)C)NC(=O)c1ccc(-c2cccc(F)c2)o1 [Compound 127, 5-(3-Fluoro-phenyl)-furan-2-carboxylic acid {3,3-dimethyl-1-(S)-[1-(S)-methyl-2-(4-trifluoromethoxy-phenylamino)-ethylcarbamoyl]-butyl}-amide]",< 100
13,"COc1cccc(C(=O)N[C@@H](CC2CCCCC2)C(=O)N[C@@H](CO)CN2CCc3cc(F)ccc32)c1 [Compound 150, N-{2-Cyclohexyl-1-(S)-[2-(5-fluoro-2,3-dihydro-indol-1-yl)-1-(R)-hydroxymethyl-ethylcarbamoyl]-ethyl}-3-methoxy-benzamide]",< 100
14,"Cc1cccc(S(=O)(=O)N[C@@H](CC(C)(C)C)C(=O)N[C@@H](CC(=O)OC(C)(C)C)CN2CCc3cc(F)ccc32)c1 [Compound 252, (S,S)-3-[4,4-Dimethyl-2-(toluene-3-sulfonylamino)-pentanoylamino]-4-(5-fluoro-2,3-dihydro-indol-1-yl)-butyric acid tert-butyl ester]",< 1000
15,"COc1ccc(NC[C@H](C)NC(=O)[C@H](CC2CCCCC2)NC(=O)c2ccc(-c3ccc(F)cc3)o2)cc1 [Compound 105, 5-(4-Fluoro-phenyl)-furan-2-carboxylic acid {2-cyclohexyl-1-(S)-[2-(4-methoxy-phenylamino)-1-(S)-methyl-ethylcarbamoyl]-ethyl}-amide]",< 100
16,"O=C(NCCN1CCc2cc(F)ccc21)[C@H](CC1CCCCC1)NS(=O)(=O)Cc1ccccc1 [Compound 242, (S)-3-Cyclohexyl-N-[2-(5-fluoro-2,3-dihydro-indol-1-yl)-ethyl]-2-phenylmethanesulfonylamino-propionamide]",< 10000
17,"O=C(Nc1ccc(-c2ccccc2)cc1)N[C@@H](CC1CCCCC1)C(=O)NCCN1CCc2cc(F)ccc21 [Compound 225, (S)-2-(3-Biphenyl-4-yl-ureido)-3-cyclohexyl-N-[2-(5-fluoro-2,3-dihydro-indol-1-yl)-ethyl]-propionamide]",< 1000
18,"CNS(=O)(=O)c1ccc(NC[C@H](C)NC(=O)[C@H](CC2CCCCC2)NC(=O)c2ccc(-c3cccc(F)c3)o2)cc1 [Compound 118, 5-(3-Fluoro-phenyl)-furan-2-carboxylic acid {2-cyclohexyl-1-(S)-[1-(S)-methyl-2-(4-methylsulfamoyl-phenylamino)-ethylcarbamoyl]-ethyl}-amide]",< 100
19,"C[C@@H](CNc1ccccc1Cl)NC(=O)[C@H](CC1CCCCC1)NC(=O)c1ccc(-c2cccc(F)c2)o1 [Compound 113, 5-(3-Fluoro-phenyl)-furan-2-carboxylic acid {1-(S)-[2-(2-chloro-phenylamino)-1-(S)-methyl-ethylcarbamoyl]-2-cyclohexyl-ethyl}-amide]",< 100
20,"O=C(N[C@@H](CC1CCCCC1)C(=O)NCCN1CCc2cc(F)ccc21)c1ccc(Oc2ccccc2)cc1 [Compound 4, N-(S)-{2-cyclohexyl-1-[2-(5-fluoro-2,3-dihydro-indol-1-yl)-ethylcarbamoyl]-ethyl}-4-phenoxy-benzamide]",< 100
21,"O=C(N[C@@H](CC1CCCCC1)C(=O)NCCN1CCc2cc(F)ccc21)C1CCN(c2ccc(Cl)nn2)CC1 [Compound 56, 1-(6-Chloro-pyridazin-3-yl)-piperidine-4-carboxylic acid (S)-{2-cyclohexyl-1-[2-(5-fluoro-2,3-dihydro-indol-1-yl)-ethylcarbamoyl]-ethyl}-amide]",< 1000
22,"O=C(C[C@@H](CN1CCc2cc(F)ccc21)NC(=O)[C@H](CC1CCCCC1)NC(=O)OCc1ccccc1)OCc1ccccc1 [Compound 168, 3-(S)-(2-(S)-Benzyloxycarbonylamino-3-cyclohexyl-propionylamino)-4-(5-fluoro-2,3-dihydro-indol-1-yl)-butyric acid benzyl ester]",< 100
23,"C[C@@H](CN1CC(C)(C)c2cc(F)ccc21)NC(=O)[C@H](CC1CCCCC1)NC(=O)[C@H]1CCCO1 [Compound 273, Tetrahydrofuran-2-(R)-carboxylic acid {2-cyclohexyl-1-(S)-[2-(5-fluoro-3,3-dimethyl-2,3-dihydro-indol-1-yl)-1-(S)-methyl-ethylcarbamoyl]-ethyl}-amide]",< 100
24,"COc1cccc(C(=O)N[C@@H](CC(C)(C)C)C(=O)N[C@@H](CC(=O)OC(C)(C)C)CN2CCc3cc(F)ccc32)c1 [Compound 160, 4-(5-Fluoro-2,3-dihydro-indol-1-yl)-3-(S)-[2-(S)-(3-methoxy-benzoylamino)-4,4-dimethyl-pentanoylamino]-butyric acid tert-butyl ester]",< 100
25,"C[C@@H](CNc1ccc(OC(F)(F)F)cc1)NC(=O)[C@H](CC1CCCCC1)NC(=O)C1CCOC1 (mixture of isomers) [Compound 272, Tetrahydrofuran-3-(R,S)-carboxylic acid {2-cyclohexyl-1-(S)-[1-(S)-methyl-2-(4-trifluoromethoxy-phenylamino)-ethylcarbamoyl]-ethyl}-amide]",< 100
26,"C[C@@H](CN1CCc2cc(F)ccc21)NC(=O)[C@H](CC(C)(C)C)NC(=O)c1ccnnc1 [Compound 178, Pyridazine-4-carboxylic acid {1-(S)-[2-(5-fluoro-2,3-dihydro-indol-1-yl)-1-(S)-methyl-ethylcarbamoyl]-3,3-dimethyl-butyl}-amide]",< 100
27,"C[C@@H](CNc1ccc(OC(F)(F)F)cc1)NC(=O)[C@H](CC1CCCC1)NC(=O)OC1CCOCC1 [Compound 190, (S,S)-{2-Cyclopentyl-1-[1-methyl-2-(4-trifluoromethoxy-phenylamino)-ethylcarbamoyl]-ethyl}-carbamic acid tetrahydropyran-4-yl ester]",< 100
